Source: patent US7157487B2, “Vla-4 inhibitors” (Daiichi Pharmaceutical Co., Ltd., priority 2000, dated 2007)

Key:
[1] = molecular target: T1, integrins haα4 and β1 (VLA-4) expressed on CHO cells (Homo sapiens, UniProt P05556+P13612); assay: In vitro Evaluation Test (1): binding of Eu3+-hVCAM-1 D1D7-IgG to CHO cells expressing integrins α4 and β1; conditions: inhibition of Eu3+-hVCAM-1 D1D7-IgG binding to CHO cells expressing α4β1; Ki calculated from IC50
T1 construct: expressed in transfected cells; host or cells: CHO cells
T1 sequence (P13612 34-1032): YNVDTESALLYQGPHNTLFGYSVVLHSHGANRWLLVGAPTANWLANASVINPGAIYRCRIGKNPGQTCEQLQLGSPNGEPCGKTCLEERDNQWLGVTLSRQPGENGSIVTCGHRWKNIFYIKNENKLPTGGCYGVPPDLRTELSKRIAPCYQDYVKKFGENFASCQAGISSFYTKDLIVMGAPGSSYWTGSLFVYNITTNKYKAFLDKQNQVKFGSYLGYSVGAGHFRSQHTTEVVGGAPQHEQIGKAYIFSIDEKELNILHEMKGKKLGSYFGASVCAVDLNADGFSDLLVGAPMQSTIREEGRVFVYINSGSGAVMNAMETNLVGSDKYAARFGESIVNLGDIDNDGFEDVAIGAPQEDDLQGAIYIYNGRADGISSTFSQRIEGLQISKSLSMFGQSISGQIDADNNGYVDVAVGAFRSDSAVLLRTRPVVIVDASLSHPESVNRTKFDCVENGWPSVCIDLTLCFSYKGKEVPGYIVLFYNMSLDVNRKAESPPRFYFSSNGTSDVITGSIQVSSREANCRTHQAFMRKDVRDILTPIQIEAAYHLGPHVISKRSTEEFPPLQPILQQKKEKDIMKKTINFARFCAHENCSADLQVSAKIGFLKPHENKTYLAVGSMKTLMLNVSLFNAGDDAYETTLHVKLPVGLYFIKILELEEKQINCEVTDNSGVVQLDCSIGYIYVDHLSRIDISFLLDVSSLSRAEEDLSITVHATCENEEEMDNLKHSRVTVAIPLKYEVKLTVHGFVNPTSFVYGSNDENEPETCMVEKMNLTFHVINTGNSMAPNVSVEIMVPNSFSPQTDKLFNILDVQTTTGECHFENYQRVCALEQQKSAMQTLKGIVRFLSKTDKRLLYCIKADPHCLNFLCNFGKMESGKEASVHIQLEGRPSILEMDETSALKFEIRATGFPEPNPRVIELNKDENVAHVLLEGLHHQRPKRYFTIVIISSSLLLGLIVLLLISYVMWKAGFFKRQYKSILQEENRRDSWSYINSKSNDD
T1 sequence (P05556 21-798): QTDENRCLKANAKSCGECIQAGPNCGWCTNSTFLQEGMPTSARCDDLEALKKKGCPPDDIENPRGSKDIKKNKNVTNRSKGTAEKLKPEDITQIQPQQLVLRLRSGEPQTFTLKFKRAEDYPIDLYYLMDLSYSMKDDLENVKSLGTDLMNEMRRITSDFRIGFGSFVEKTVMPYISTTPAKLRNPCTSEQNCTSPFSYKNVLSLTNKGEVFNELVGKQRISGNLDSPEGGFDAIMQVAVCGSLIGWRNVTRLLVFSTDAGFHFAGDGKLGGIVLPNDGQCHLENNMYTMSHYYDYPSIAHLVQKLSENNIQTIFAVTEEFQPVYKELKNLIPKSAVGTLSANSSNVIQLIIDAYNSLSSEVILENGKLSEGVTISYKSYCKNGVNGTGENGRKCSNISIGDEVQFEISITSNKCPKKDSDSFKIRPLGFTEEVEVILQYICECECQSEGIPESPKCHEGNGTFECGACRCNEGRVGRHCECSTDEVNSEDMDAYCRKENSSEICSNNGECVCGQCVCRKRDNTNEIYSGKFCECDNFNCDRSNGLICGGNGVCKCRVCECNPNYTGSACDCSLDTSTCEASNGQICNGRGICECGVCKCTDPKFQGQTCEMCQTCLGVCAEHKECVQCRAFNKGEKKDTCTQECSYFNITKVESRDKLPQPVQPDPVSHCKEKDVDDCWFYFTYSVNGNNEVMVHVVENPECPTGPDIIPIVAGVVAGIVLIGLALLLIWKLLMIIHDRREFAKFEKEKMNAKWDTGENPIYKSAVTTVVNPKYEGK
Summary of the method: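 CHO cells transduced with human α4 and β1 were grown for 2 days. They were incubated 1 h at room temperature with Eu3+-hVCAM-1 D1D7-IgG (diluted to 2 nM before addition) and compound, with or without 6% HSA, in HEPES pH 7.5 containing Ca2+, Mg2+ and 4 mM Mn2+. Time-resolved fluorescence gave IC50; Ki used a Scatchard-derived Kd (0.06–20 nM).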

[2] = Evaluation of oral bioavailability by mouse bioassay; type: in vivo; conditions: 10 mg/kg oral, female Balb/C mice, serum 15 minutes after administration, read-out: Blood level
Description: A test compound was suspended or dissolved in a proper administration medium to give a concentration of 1 mg/ml. To 7 to 9 week old female Balb/C mice, 10 mg/kg of the resulting suspension or solution was orally administered. Fifteen minutes after the administration, blood was collected from the postcava under anesthesia with ether and the serum was separated from it. The concentration of each test compound was determined by estimating the serum level from a calibration curve obtained with VCAM-1/VLA-4 inhibitory activity as an index or measuring the concentration by using LC/MS/MS.

Ki [1] [nM]	concentration at 15 min [2] [ng/mL]	SMILES
2	2960	O=C(Nc1cc(F)c(CC(=O)N2C[C@@H](F)C[C@H]2CO[C@H]2CC[C@H](C(=O)O)CC2)cc1Cl)N1CCc2ccccc21 [Example 91, trans-4-(1-(5-Chloro-2-fluoro-4-(1-(indolinyl)carbonylamino)phenylacetyl)-(4S)-fluoro-(2S)-pyrrolidinylmethoxy)cyclohexanecarboxylic acid]
2.7	1990	O=C(Nc1ccc(CC(=O)N2C[C@@H](F)C[C@H]2CO[C@H]2CC[C@H](C(=O)O)CC2)cc1Cl)N1CCc2ccc(F)cc21 [Example 92]
3.6	2210	Cn1cc(-c2nc3ccc(CC(=O)N4C[C@@H](F)C[C@H]4CO[C@H]4CC[C@H](C(=O)O)CC4)c(F)c3o2)c2ccccc21 [Example 98, trans-4-(1-((7-Fluoro-2-(1-methyl-3-indolyl)-6-benzoxazolyl)acetyl)-(4S)-fluoro-(2S)-pyrrolidinylmethoxy)cyclohexanecarboxylic acid]
5.5	533	Cn1cc(-c2nc3ccc(CC(=O)N4C[C@@H](F)C[C@H]4CO[C@H]4CC[C@H](C(=O)O)CC4)cc3o2)c2cc(F)ccc21 [Example 100, trans-4-(1-((2-(5-Fluoro-1-methyl-3-indolyl)-6-benzoxazolyl)acetyl)-(4S)-fluoro-(2S)-pyrrolidinylmethoxy)cyclohexanecarboxylic acid]
30	888	CO[C@@H]1C[C@@H](CO[C@H]2CC[C@H](C(=O)O)CC2)N(C(=O)Cc2cc(Cl)c(NC(=O)c3cn(C)c4ccccc34)cc2F)C1 [Example 115, trans4-(1-((5-chloro-2-fluoro-4-(1-methyl-3-indolylcarbonylamino)phenyl)acetyl)-(4R)-methoxy-(2S)-pyrrolidinylmethoxy)cyclohexanecarboxylic acid]
2.5	9400	CO[C@H]1C[C@@H](CO[C@H]2CC[C@H](C(=O)O)CC2)N(C(=O)Cc2cc(Cl)c(NC(=O)c3cn(C)c4ccccc34)cc2F)C1 [Example 116, trans-4-(1-((5-Chloro-2-fluoro-4-(1-methyl-3-indolylcarbonylamino)phenyl)acetyl)-(4S)-methoxy-(2S)-pyrrolidinylmethoxy)cyclohexanecarboxylic acid]
5.1	2930	C=CCO[C@H]1C[C@@H](CO[C@H]2CC[C@H](C(=O)O)CC2)N(C(=O)Cc2cc(Cl)c(NC(=O)c3cn(C)c4ccccc34)cc2F)C1 [Example 117, trans-4-((4S)-Allyloxy-1-((5-chloro-2-fluoro-4-(1-methyl-3-indolylcarbonylamino)phenyl)acetyl)-(2S)-pyrrolidinylmethoxy)cyclohexanecarboxylic acid]
6.9	5730	CCCO[C@H]1C[C@@H](CO[C@H]2CC[C@H](C(=O)O)CC2)N(C(=O)Cc2cc(Cl)c(NC(=O)c3cn(C)c4ccccc34)cc2F)C1 [Example 118, trans-4-(1-((5-Chloro-2-fluoro-4-(1-methyl-3-indolylcarbonylamino)phenyl)acetyl)-(4S)-propoxy-(2S)-pyrrolidinylmethoxy)cyclohexanecarboxylic acid]
3.9	4410	CO[C@H]1C[C@@H](CO[C@H]2CC[C@H](C(=O)O)CC2)N(C(=O)Cc2cc(Cl)c(NC(=O)c3nn(C)c4ccccc34)cc2F)C1 [Example 121, trans-4-(1-((5-Chloro-2-fluoro-4-(1-methyl-3-indazolylcarbonylamino)phenyl)acetyl)-(4S)-methoxy-(2S)-pyrrolidinylmethoxy)cyclohexanecarboxylic acid]
5.8	705	Cc1ccccc1Nc1nc2ccc(CC(=O)N3C[C@@H](Sc4ccccc4)C[C@H]3CO[C@H]3CC[C@H](C(=O)O)CC3)cc2o1 [Example 123]
6.5	2570	CS[C@H]1C[C@@H](CO[C@H]2CC[C@H](C(=O)O)CC2)N(C(=O)Cc2cc(Cl)c(NC(=O)c3cn(C)c4ccccc34)cc2F)C1 [Example 125, trans-4-(1-((5-Chloro-2-fluoro-4-((1-methyl-3-indolylcarbonyl)amino)phenyl)acetyl)-(4S)-methylthio-(2S)-pyrrolidinylmethoxy)cyclohexanecarboxylic acid]
8.8	3590	Cn1cc(C(=O)Nc2cc(F)c(CC(=O)N3CCC[C@H]3CO[C@H]3CC[C@H](C(=O)O)CC3)cc2Cl)c2ccccc21 [Example 130, trans-4-(1-((5-Chloro-2-fluoro-4-(1-methyl-3-indolylcarbonylamino)phenyl)acetyl)-(2S)-pyrrolidinylmethoxy)-1-cyclohexanecarboxylic acid]
5.4	2500	C[C@H]1CC[C@@H](CO[C@H]2CC[C@H](C(=O)O)CC2)N1C(=O)Cc1cc(Cl)c(NC(=O)c2cn(C)c3ccccc23)cc1F [Example 136, trans-4-(1-((5-chloro-2-fluoro-4-((1-methyl-3-indolyl)carbonylamino)phenyl)acetyl)-(5S)-methyl-(2S)-pyrrolidinylmethoxy)cyclohexanecarboxylic acid]
15	1260	COC[C@H]1C[C@@H](CO[C@H]2CC[C@H](C(=O)O)CC2)N(C(=O)Cc2cc(Cl)c(NC(=O)c3cn(C)c4ccccc34)cc2F)C1 [Example 138, trans-4-(1-(5-Chloro-2-fluoro-4-((1-methyl-1H-3-indolylcarbonyl)amino)phenylacetyl)-(4S)-methoxymethyl-(2S)-pyrrolidinylmethoxy)cyclohexanecarboxylic acid]
9.1	2430	COC[C@H]1C[C@@H](CO[C@H]2CC[C@H](C(=O)O)CC2)N(C(=O)Cc2cc(Cl)c(NC(=O)c3nn(C)c4ccccc34)cc2F)C1 [Example 139, trans-4-(1-(5-Chloro-2-fluoro-4-((1-methyl-1H-indazole-3-indazolylcarbonyl)amino)phenylacetyl)-(4S)-methoxymethyl-(2S)-pyrrolidinylmethoxy)cyclohexanecarboxylic acid]
21	8820	COC[C@@H]1CC[C@@H](CO[C@H]2CC[C@H](C(=O)O)CC2)N1C(=O)Cc1cc(Cl)c(NC(=O)c2cn(C)c3ccccc23)cc1F [Example 141, trans-4-((1-(5-Chloro-2-fluoro-4-((1-methyl-3-indolyl)carbonylamino)phenyl)acetyl)-(5S)-methoxymethyl-(2S)-pyrrolidinylmethoxy)cyclohexanecarboxylic acid]
20	571	CO[C@@H]1CN(C(=O)Cc2ccc3nc(Nc4ccccc4C)oc3c2)C[C@@H]1Oc1ccc(C(=O)O)cc1 [Example 155, 4-((4R)-Methoxy-1-((2-(2-methylphenylamino)-6-benzoxazolyl)acetyl)-(3S)-pyrrolidinyloxy)benzoic acid]
6.4	2300	COC[C@H]1CC[C@@H](CO[C@H]2CC[C@H](C(=O)O)CC2)N1C(=O)Cc1cc(Cl)c(NC(=O)c2cn(C)c3ccccc23)cc1F [Example 164, trans-4-(1-((5-Chloro-2-fluoro-4-((1-methyl-3-indolylcarbonyl)amino)phenyl)acetyl)-(5R)-methoxymethyl-(2S)-pyrrolidinylmethoxy)cyclohexanecarboxylic acid]
2.9	816	COC[C@H]1CC[C@@H](CO[C@H]2CC[C@@H](C(=O)O)CC2)N1C(=O)Cc1ccc2nc(Nc3cc(F)ccc3C)oc2c1F [Example 165, trans-4-(1-((2-(5-Fluoro-2-methylphenylamino)-7-fluoro-6-benzoxazolyl)acetyl)-(5R)-methoxymethyl-(2S)-pyrrolidinylmethoxy)cyclohexanecarboxylic acid]
7.9	3070	COC[C@H]1CC[C@@H](CO[C@H]2CC[C@H](C(=O)O)CC2)N1C(=O)Cc1cc(Cl)c(NC(=O)c2nn(C)c3ccccc23)cc1F [Example 166, trans-4-(1-((5-Chloro-2-fluoro-4-((1-methyl-3-indazolylcarbonyl)amino)phenyl)acetyl)-(5R)-methoxymethyl-(2S)-pyrrolidinylmethoxy)cyclohexanecarboxylic acid]
16	21800	CO[C@H]1CCN(C(=O)Cc2cc(Cl)c(NC(=O)c3nn(C)c4ccccc34)cc2F)[C@@H]1CO[C@H]1CC[C@H](C(=O)O)CC1 [Example 169, trans-4-(1-((5-Chloro-2-fluoro-4-((1-methyl-3-indazolylcarbonyl)amino)phenyl)acetyl)-(3S)-methoxy-(2R)-pyrrolidinylmethoxy)cyclohexanecarboxylic acid]
4.3	3360	CO[C@H]1C[C@@H](CO[C@H]2CC[C@H](C(=O)O)CC2)N(C(=O)Cc2cc(Cl)c(NC(=O)c3cn(C)c4ccccc34)cc2Cl)C1 [Example 170, trans-4-(1-(2,5-Dichloro-4-((1-methyl-1H-3-indolylcarbonyl)amino)phenylacetyl)-(4S)-methoxy-(2S)-pyrrolidinylmethoxy)cyclohexanecarboxylic acid]
